Reference: patent US7053121B2, “Compositions and methods for regulating circadian rhythms” (priority 2001, dated 2006)

Key:
[1] = tested on: Gal4DBD fusions of CLOCK and MOP4 with VP16 fusions of nuclear receptors; test: Mammalian two-hybrid analysis in CV-1 cells; type: cell-based, human; conditions: ligand 1 μM, FIG. 1B
Experimental: NIH 3T3 cells were seeded at 20,000 cells/well in a 48-well dish and transfected by FuGENE™ liposome-mediated transfer (Roche Molecular Biochemicals, Indianapolis, Ind.) with internal control pRLSV40 (5 ng), pGL3M34 reporter, CMX-MOP4 (100 ng) or CMX-CLOCK (100 ng) and CMX-BMAL1 (100 ng) in the presence or absence of CMX-RXRα or CMX-RARα (25–100 ng). CMX-MOP4ΔAAA (100 ng), pCDNA3.1MOP4Δ727 (100 ng), pCDNA3.1MOP4Δ624 (100 ng), and CMX-MOP4Δ635–645 (100 ng) were used instead of CMXMOP4 where indicated. The amount of DNA in each transfection was kept constant by addition of empty pCDNA3 vector. […] Forty-eight hours post-transfection, cells were harvested to determine luciferase activity by luminometry (Dual-Luciferase® Reporter Assay System, Promega Corporation, Madison, Wis.). The procedure for mammalian two-hybrid analysis was identical except that CV-1 cells were used. MH100TK-LUC (100 ng) reporter, CMX-Gal4DBD-MOP4 (20 ng), CMX-Gal4DBD-CLOCK (20 ng) in the presence of, CMX-VP16-PPARγ (20 ng), CMX-VP16-RARα (20 ng), CMX-VP16-TRβ (20 ng), CMX-RXRα (20 ng) or CMX-VP16-PPARα (20 ng). […] For all the figures, each value is the mean of three independent experiments +/− standard error. Each experiment included six replicates from a single assay.

[2] = tested on: hPER2 transcript oscillation in VSMC; test: Serum shock and ribonuclease protection analysis of hPER2 mRNA in VSMC; type: cell-based, human
Experimental: In these experiments, it was determined that oscillating clock gene expression could be induced by serum shock in VSMC as had been reported in Rat and 3T3 fibroblasts (Balsalobre, et al. (1998) Cell 93:929–937; Akashi, et al. (2000) Genes Dev. 14:645–649). Following addition of 50% serum for two hours, hPER2 mRNA peaks very rapidly at T4 (fours hours after serum shock) and enters a cyclical expression pattern, peaking at T24 and T48 (FIG. 5A). Adding tRA at T17 and leaving it in the culture for the remainder of the experiment, delayed the peak of hPER2 mRNA from T24 to T28. […] When tRA was added at T17 and removed at T19, the first hPER2 peak was again delayed to T28. However, the drop in hPER2 levels was followed by an increase, resulting in a second cycle which peaked at T52 (FIG. 5C). Thus, tRA phase delayed the hPER oscillation by four hours, which is consistent with the observation that ligand-bound RARα prevents CLOCK:BMAL1 heterodimer from activating transcription through its E-box. Removal of the ligand restored the ability of the CLOCK:BMAL1 heterodimer to induce hPER2 expression, but the phase of the cycle was delayed.
The coincidental circadian variability of catecholamines and blood pressure (Hossmann, et al. (1980) Cardiovasc. Res. 14:125–129) led to the investigation of whether catecholamines can phase-shift a core clock oscillator in VSMC. Norepinephrine and epinephrine (10 μM), were added at T16 and left in the culture until T18. This phase advanced the hPER2 mRNA peak to T20 instead of T24 (FIG. 5D).
VSMC (3500 cells/cm^2) were plated on 10 cm^2 plates 6 days before the experiment and were serum-starved for 48 hours after reaching confluence. Serum shock was carried out using 50% fetal bovine serum (Gibco, Carlsbad, Calif.) as previously described (Balsalobre, et al. (1998) Cell 93:929–937) and cells were harvested at the indicated time points and stored at −80° C. Total RNA was extracted from each sample using the RNAwiz™ reagent (Ambion, Austin, Tex.). […] RNA (5 μg) from each time point was hybridized for 16 hour with 8×10^4 cpm of the probe at 42° C. and digested with RNaseA/T1 (SequaGel System, National Diagnostics, Atlanta, Ga.), dried and analyzed by a PhosphorImager. The data was quantitated using ImageQuant version 1.2 software (Amersham Pharmacia Molecular Dynamics, Piscataway, N.J.) All results represent a mean of at least two independent experiments and are expressed as the ratio of the MOP4 or PER2 signal divided by the Actin signal at the same time point.

[3] = tested on: interaction between MOP4 and CLOCK with RXRα and RARα; conditions: YRG2 cells, ligand 1 μM, FIG. 1A
Experimental: A liquid β-galactosidase activity assay was utilized to assess the effect of ligands on these novel interactions.
The library was prepared by ligating XhoI/EcoRI-adapted, phosphorylated, oligo-dT-primed cDNA, prepared from polyadenylated RNA extracted from 1×10^8 human aortic vascular smooth muscle cells (Cambrex Corporation, East Rutherford, N.J.), into the HybriZAP® II vector and packaged with Gigapack® III Gold packaging extract (Stratagene, La Jolla, Calif.) into a primary lambda library. […] RXRα-interacting clones were selected on media lacking tryptophan, leucine, and histidine, supplemented with 10 mM 3-amino-triazol.

CLOCK and RARα = target: T1, CLOCK and RARα (Homo sapiens, UniProt P10276); test: In vitro immunoprecipitation of CLOCK and RARα; type: binding; conditions: in vitro translated proteins, incubation in presence of retinoic acid
T1 construct: made in house; host or cells: coupled in vitro transcription-translation (labelled protein); E. coli BL21(DE3) (purified protein, inferred)
T1 sequence (P10276 1-462): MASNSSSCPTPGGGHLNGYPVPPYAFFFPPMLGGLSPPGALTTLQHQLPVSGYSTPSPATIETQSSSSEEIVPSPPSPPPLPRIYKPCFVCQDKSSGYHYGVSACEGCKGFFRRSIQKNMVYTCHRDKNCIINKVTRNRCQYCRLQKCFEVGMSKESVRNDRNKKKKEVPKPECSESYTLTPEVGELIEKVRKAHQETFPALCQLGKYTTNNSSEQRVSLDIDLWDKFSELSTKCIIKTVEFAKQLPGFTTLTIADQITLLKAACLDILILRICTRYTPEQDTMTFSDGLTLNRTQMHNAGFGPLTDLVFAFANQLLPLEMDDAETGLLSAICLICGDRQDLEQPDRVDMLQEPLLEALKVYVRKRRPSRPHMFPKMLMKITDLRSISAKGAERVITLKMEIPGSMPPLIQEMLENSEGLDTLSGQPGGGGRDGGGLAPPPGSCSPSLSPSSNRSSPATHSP
T1 sequence (O15516 1-846 partner): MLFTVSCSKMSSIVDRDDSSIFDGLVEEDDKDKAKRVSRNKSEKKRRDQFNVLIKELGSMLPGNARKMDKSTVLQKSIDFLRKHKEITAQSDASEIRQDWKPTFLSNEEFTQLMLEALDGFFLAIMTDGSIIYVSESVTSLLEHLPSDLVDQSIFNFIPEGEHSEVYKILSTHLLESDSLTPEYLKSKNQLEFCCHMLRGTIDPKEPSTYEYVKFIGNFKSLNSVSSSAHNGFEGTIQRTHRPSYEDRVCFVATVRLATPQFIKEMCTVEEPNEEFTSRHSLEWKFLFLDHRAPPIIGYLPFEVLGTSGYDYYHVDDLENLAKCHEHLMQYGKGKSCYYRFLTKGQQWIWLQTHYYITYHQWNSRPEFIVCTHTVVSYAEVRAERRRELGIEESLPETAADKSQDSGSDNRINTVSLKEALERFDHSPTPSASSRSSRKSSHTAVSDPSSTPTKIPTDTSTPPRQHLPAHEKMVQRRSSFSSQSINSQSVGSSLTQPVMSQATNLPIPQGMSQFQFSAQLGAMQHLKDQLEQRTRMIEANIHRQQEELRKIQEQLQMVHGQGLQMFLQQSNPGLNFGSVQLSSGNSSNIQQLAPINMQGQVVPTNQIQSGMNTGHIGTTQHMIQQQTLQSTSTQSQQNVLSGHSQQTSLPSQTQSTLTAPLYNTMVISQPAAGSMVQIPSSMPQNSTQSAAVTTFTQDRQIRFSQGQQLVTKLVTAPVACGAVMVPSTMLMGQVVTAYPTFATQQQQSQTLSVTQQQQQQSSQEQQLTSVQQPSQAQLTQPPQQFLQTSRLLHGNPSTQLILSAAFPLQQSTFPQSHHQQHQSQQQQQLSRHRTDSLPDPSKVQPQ
Experimental: [^35S]Methionine-labeled RARα and CLOCK were incubated with purified CLOCK and RARα protein, respectively for 30 min. at room temperature in the presence or absence of tRA. The complex was immunoprecipitated using anti-CLOCK and anti-RAR antibodies (Santa Cruz Biotechnology, Inc., Santa Cruz, Calif.) and protein A-agarose (Gibco, Carlsbad, Calif.) was added. Beads were washed extensively and bound proteins separated by SDS-PAGE and analyzed by a PhosphorImager.

| SMILES | interaction of MOP4 and CLOCK with RXRα and RARα [1] | hPER2 transcript oscillation ([2]; addition at T17, FIG. 5B) | hPER2 transcript oscillation ([2]; addition at T17 and removal at T19, FIG. 5C) | phase delay of the hPER oscillation ([2]; tRA added at T17) | subsequent hPER2 levels ([2]; tRA added at T17 and left in culture, FIG. 5B) | strength of the interaction between MOP4 and CLOCK with RARα [3] | association of CLOCK and RARα (coimmunoprecipitation) (CLOCK and RARα) |
| --- | --- | --- | --- | --- | --- | --- | --- |
| CC1=C(/C=C/C(C)=C\C=C\C(C)=C\C(=O)O)C(C)(C)CCC1 [9cisRA, 9-cis-retinoic acid] | ligand-dependent manner |  |  |  |  |  |  |
| CC1=C(/C=C/C(C)=C/C=C/C(C)=C/C(=O)O)C(C)(C)CCC1 [tRA, all-trans retinoic acid] | ligand-dependent manner | delayed | altered | four | dropped and did not peak again | increase the strength of the interaction | increase in association |
